According to US4778792A, “Use of 7-acyl benzoxazinones and their derivatives in treating atheromatous disorders” (Laboratories Negma, priority 1985, dated 1988):
Where a name gives a salt, the structure may show the parent alone. Read-outs that look alike come from different tables or passages of the source.

Assay: Normolipemic activity, lipid balance in normal or hypercholesterolemic mice
Assay type: in vivo
Conditions: per os, 50 mg/kg daily for 15 days, with respect to a control group; for change in vivo at 50 mg/kg: Mus musculus, po, 360 h
Method: Activity of selected molecules by the Triton test in mice rendered hypercholesterolemic and normal mice: study of the lipid parameters, of the lipoprotein and apoprotein composition.
Preliminary study on the weight of the liver and histological examination of the hepatic tissue.
3.2 The normolipemic activity has also been established in OF normal mice or rendered hypercholesterolemic. The products tested were administered per os daily for 15 days at the dose of 50 mg/kg.
All the compounds were administered orally at the rate of 50 mg/kg.

[1] = read-out: CT (Total cholesterol) %
[2] = read-out: HDLC (Cholesterol fraction contained in the HDLs) %
[3] = read-out: HDLC/TC (ratio between the cholesterol contained in the HDLs and the total cholesterol) %

SMILES | change in vivo at 50 mg/kg [1] [%] | change in vivo at 50 mg/kg [2] [%] | change in vivo at 50 mg/kg [3] [%] | change in vivo at 50 mg/kg (read-out: Phospho Lipids) [%] | change in vivo at 50 mg/kg (read-out: TG (Triglycerids) %) [%] | Liver weight / Body weight
CC(C)OC(=O)C(C)(C)Oc1ccc(C(=O)c2ccc(Cl)cc2)cc1 [Fenofibrate, fenofibrate, reference compound] | -30 | -11 | 30 | 18 | 24 | +55%
CCCC(=O)c1ccc2c(c1)OC(C)(C)C(=O)N2C [MZ 86, 7-Butyryl 2,2,4-trimethyl benzoxazinone] | -38 | 18 | 44 | 0 | -12 | +2%
CCCC(=O)c1ccc2c(c1)OC(C)(C)C(=O)N2 [MZ 95, 7-Butyryl 2,2-dimethyl benzoxazinone] | -21 | 0 | 25 | 5 | -5 | +6%
CC1Oc2cc(C(=O)c3ccccc3)ccc2NC1=O (centres unmarked) [MZ 115, 7-Benzoyl 2-methyl benzoxazinone] | -32 | -5 | 17 | -9 | 18 | +9%
CN1C(=O)C(C)(C)Oc2cc(C(=O)c3ccccc3)ccc21 [MZ 119, 7-Benzoyl 2,2,4 trimethyl benzoxazinone] | -30 | -6 | 21 | 15 | 21 | +12%
CN1C(=O)C(C)(C)Oc2cc(C(=O)c3ccc(Cl)cc3)ccc21 [MZ 125, 7-(4-Chlorobenzoyl)2,2,4-trimethyl benzoxazinone] | -25 | 1 | 18 | 15 | 19 | +17%
CC1Oc2cc(C(=O)C=Cc3ccc(Cl)cc3)ccc2N(C)C1=O (centres unmarked) [MZ 134, 7(4-Chlorocinnamoyl)2,4 dimethyl benzoxazinone] |  | 5 | 10 | 11 | -9 | +5%
CN1C(=O)C(C)(C)Oc2cc(C(=O)CCCN3CCN(c4ccc(F)cc4)CC3)ccc21 [MZ 153, 7[4(4p-fluorophenylpiperazino)butyryl]2,2,4-trimethyl benzoxazinone] | -10 | 25 | 45 | 19 | 18 | +4%
CN1C(=O)C(C)(C)Oc2cc(C(=O)CCN3CCOCC3)ccc21 [NM 7, 7[3-morpholinopropionyl[2'2'4 trimethylbenzoxazinone, hydrochloride] | 2 | 5 | 14 | 5 | 5 | -10%
CN1C(=O)C(C)(C)Oc2cc(C(=O)CCN3CCN(c4cccc(C(F)(F)F)c4)CC3)ccc21 [NM 8, 3(4-Metatrifluoromethylphenylpiperazino)7-propionyl 2,2,4 trimethyl benzoxazinone, hydrochloride] | 8 | 10 | 11 | 8 | 23 | -15%
CCCC(=O)c1ccc2c(c1)OC(C)(C)C(=O)N2CCC(=O)O [NM 11, 7-Butyryl 4-β carboxyethyl 2,2-dimethyl benzoxazinone] | -37 | 7 | 43 | 16 | -8 | 0%
